Source: ChEMBL document CHEMBL1157005, “A new structural class of S-adenosylhomocysteine hydrolase inhibitors” (Bioorg Med Chem, 2009)

How the values were obtained:
[1] = molecular target: T1, Adenosylhomocysteinase (Homo sapiens, UniProt P23526); assay: Inhibition of S-adenosyl-L-homocysteine hydrolase after 10 mins by scintillation counting
Target sequence in this assay (P23526 whole entry): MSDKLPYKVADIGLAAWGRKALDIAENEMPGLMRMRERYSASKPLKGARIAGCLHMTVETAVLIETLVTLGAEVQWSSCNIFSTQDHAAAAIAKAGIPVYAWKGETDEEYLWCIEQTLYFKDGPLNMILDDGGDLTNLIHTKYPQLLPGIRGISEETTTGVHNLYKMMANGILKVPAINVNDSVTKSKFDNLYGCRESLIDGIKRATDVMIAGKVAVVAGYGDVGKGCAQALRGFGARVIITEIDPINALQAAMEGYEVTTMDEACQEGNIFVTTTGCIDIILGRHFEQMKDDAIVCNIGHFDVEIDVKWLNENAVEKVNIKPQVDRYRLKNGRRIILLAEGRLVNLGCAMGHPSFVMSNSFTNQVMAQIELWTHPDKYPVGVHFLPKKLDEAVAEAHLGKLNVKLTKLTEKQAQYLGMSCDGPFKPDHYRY

[2] = molecular target: T1, Adenosylhomocysteinase; assay: Inhibition of S-adenosyl-L-homocysteine hydrolase at 50 uM after 10 mins by scintillation counting
Target sequence in this assay (P23526 2-432 limits assumed): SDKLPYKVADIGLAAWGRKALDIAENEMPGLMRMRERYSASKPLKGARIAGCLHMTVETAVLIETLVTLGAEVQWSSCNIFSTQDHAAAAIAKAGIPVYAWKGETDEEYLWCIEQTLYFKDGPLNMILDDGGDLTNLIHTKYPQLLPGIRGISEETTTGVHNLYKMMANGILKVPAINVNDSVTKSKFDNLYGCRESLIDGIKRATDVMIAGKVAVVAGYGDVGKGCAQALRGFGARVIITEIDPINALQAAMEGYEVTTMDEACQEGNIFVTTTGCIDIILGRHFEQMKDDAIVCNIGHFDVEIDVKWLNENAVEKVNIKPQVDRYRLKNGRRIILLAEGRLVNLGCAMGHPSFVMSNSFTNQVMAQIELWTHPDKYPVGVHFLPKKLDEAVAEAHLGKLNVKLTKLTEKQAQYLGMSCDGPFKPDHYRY

[3] = molecular target: T1, Adenosylhomocysteinase; assay: Inhibition of S-adenosyl-L-homocysteine hydrolase at 2 uM after 10 mins by scintillation counting
Target sequence in this assay (P23526 2-432 limits assumed): as above

[4] = molecular target: Adenosylhomocysteinase (Plasmodium falciparum 3D7, UniProt P50250); assay: Inhibition of Plasmodium falciparum S-adenosyl-homocysteine hydrolase
[5] = molecular target: T2, Adenosylhomocysteinase (Rattus norvegicus, UniProt P10760); assay: Inhibition of S-adenosyl-L-homocysteine hydrolase in intact rat hepatocytes; type: cell-based, Hepatocyte
T2 sequence (P10760 whole entry): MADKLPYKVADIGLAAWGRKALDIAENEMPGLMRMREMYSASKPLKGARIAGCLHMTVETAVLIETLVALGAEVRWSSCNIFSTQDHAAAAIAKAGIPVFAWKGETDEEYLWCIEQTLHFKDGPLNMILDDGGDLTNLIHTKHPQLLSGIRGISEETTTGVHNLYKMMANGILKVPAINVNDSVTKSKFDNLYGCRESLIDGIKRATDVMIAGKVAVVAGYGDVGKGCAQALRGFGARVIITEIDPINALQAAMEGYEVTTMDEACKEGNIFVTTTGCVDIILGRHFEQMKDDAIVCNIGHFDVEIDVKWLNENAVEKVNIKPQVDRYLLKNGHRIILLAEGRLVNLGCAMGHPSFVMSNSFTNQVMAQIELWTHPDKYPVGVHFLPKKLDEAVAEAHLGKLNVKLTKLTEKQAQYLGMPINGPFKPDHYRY

Adenosylhomocysteinase (Plasmodium falciparum 3D7, UniProt P50250), sequence (P50250 whole entry): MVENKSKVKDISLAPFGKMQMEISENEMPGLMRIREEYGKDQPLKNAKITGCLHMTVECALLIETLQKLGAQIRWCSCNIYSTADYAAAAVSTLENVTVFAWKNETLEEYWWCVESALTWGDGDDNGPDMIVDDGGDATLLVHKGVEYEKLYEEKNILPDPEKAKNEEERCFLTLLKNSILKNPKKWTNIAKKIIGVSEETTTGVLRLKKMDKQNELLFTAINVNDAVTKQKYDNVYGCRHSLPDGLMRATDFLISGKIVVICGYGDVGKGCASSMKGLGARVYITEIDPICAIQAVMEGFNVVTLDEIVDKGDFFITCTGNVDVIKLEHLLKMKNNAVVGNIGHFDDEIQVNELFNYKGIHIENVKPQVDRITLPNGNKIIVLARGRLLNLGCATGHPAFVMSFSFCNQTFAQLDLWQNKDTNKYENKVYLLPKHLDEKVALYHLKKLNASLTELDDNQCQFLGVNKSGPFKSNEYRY

| IC50 [1] [µM] | inhibition [2] [%] | inhibition [3] [%] | SMILES | other results |
| --- | --- | --- | --- | --- |
| – | 74 | 17 | Nc1ncnc2c1ncn2Cc1cc(O)c(O)c(OCC2CCCCC2)c1 | – |
| – | 70 | 12 | Nc1ncnc2c1ncn2Cc1cc(O)c(O)c(OCc2ccccc2)c1 | – |
| > 250 | – | – | C=C1[C@H](OC(=O)CCCCCNC(=O)OC(C)(C)C)CC[C@H]2[C@](C)(CC3=C(Cl)C(=O)C=C(OC)C3=O)[C@@H](C)CC[C@]12C | – |
| – | 47 | 12 | CCCCCOc1cc(Cn2cnc3c(N)ncnc32)cc(O)c1O | – |

The remaining lines, values behind:

| SMILES | IC50 [1] [µM] | inhibition [2] [%] | inhibition [3] [%] | other results |
| --- | --- | --- | --- | --- |
| COC1=CC(=O)C(O)=C(C[C@@]2(C)[C@@H]3CCC[C@H](COC(=O)CCCCCNC(=O)OC(C)(C)C)[C@@]3(C)CC[C@@H]2C)C1=O | < 20 | – | – | – |
| C=C1CCC[C@H]2[C@](C)(CC3=C(O)C(=O)C=C(OC)C3=O)[C@@H](C)CC[C@]12C [ILIMAQUINONE] | 40 | – | – | – |
| Nc1ncnc2c1ncn2Cc1cc(OCC2CCCCC2)cc(O)c1O | 0.4 | – | – | – |
| Nc1ncnc2c1ncn2[C@@H]1C[C@H](O)[C@@H](O)[C@H]1O [NORARISTEROMYCIN] | – | – | – | IC50 [4]: 1.1 µM |
| Nc1ncnc2c1ncn2C[C@@H](O)[C@@H](O)C(=O)O [ERITADENINE] | – | – | – | IC50 [5]: 0.03 µM |
